Key:
3T3-L1 [1] = test: Induction of 2-deoxy-D-[2,6-3H]glucose uptake in differentiated mouse 3T3L1 cells at 200 uM after 60 mins by liquid scintillation counting relative to insulin; assay type: functional
3T3-L1 [2] = test: Induction of 2-deoxy-D-[2,6-3H]glucose uptake in differentiated mouse 3T3L1 cells at 200 uM after 60 mins by liquid scintillation counting relative to basal uptake; assay type: functional

Structure (SMILES)	Activity (3T3-L1 [1]) [%]	fold change (FC) (3T3-L1 [2])
O[C@H]1[C@H](O)[C@H](O)C[C@H](O)[C@H]1O	40	1.3
O[C@@H]1[C@@H](O)[C@@H](O)C[C@H](O)[C@H]1O	22	1.3
O[C@H]1[C@H](O)[C@H](O)[C@@H](O)[C@H](O)[C@H]1O	64	1.4 - 2.8
OC1[C@@H](O)[C@H](O)C[C@@H](O)[C@@H]1O (stereo partly specified)	-106	0.5
CCCC(=O)O[C@H]1[C@H](O)[C@@H](O)[C@@H](O)[C@H](O)[C@@H]1O	19	1.3
CCCCO[C@H]1[C@@H](O)[C@H](O)[C@H](O)[C@@H](O)[C@@H]1O	22	1.4
CCCCO[C@H]1[C@H](O)[C@H](O)[C@@H](O)[C@H](O)[C@H]1O	8	1.4 - 1.5
O[C@H]1[C@H](O)[C@@H](O)[C@H](O)[C@H](O)[C@H]1O	43	1.5 - 3

Source: ChEMBL document CHEMBL3865811, “Synthesis and biological activities of d-chiro-inositol analogues with insulin-like actions” (2016)
